Results as given in ChEMBL document CHEMBL4765494, “A role of flavonoids in cytochrome c-cardiolipin interactions” (Bioorg Med Chem, 2021).

Columns and labels:
[1] = molecular target: Cytochrome c (Homo sapiens) (UniProt P99999); assay: Inhibition of cytochrome c (unknown origin) assessed as reduction reduction of cyt c from its ferric state to ferrous state at 10 uM incubated for 20 mins in presence of cardiolipin by UV-vis Spectrophotometric assay relative to control
[2] = molecular target: Cytochrome c (Homo sapiens) (UniProt P99999); assay: Inhibition of cytochrome c (unknown origin) assessed as reduction in cyt c-CL complex formation at 10 uM incubated for 15 mins in presence of cardiolipin by Trp-59 fluorescence assay relative to control
[3] = Octanol-water distribution coefficient, log D of the compound at pH 7.4 after 1 hr by UV-VIS spectroscopic analysis; assay type: physicochemical
[4] = molecular target: Cytochrome c (Homo sapiens) (UniProt P99999); assay: Inhibition of cytochrome c (unknown origin) assessed as reduction in cyt c-CL peroxidase activity at 10 uM up to 20 mins in presence of cardiolipin by Amplex red staining based fluorescence assay relative to control; details: time min <=20
[5] = molecular target: Cytochrome c (Homo sapiens) (UniProt P99999); assay: Inhibition of cytochrome c (unknown origin) assessed as reduction reduction of cyt c from its ferric state to ferrous state incubated for 20 mins in presence of cardiolipin by UV-vis Spectrophotometric assay
[6] = molecular target: Cytochrome c (Homo sapiens) (UniProt P99999); assay: Inhibition of cytochrome c (unknown origin) assessed as pseudo first order rate constant
[7] = molecular target: Cytochrome c (Homo sapiens) (UniProt P99999)
Description: Inhibition of cytochrome c (unknown origin) assessed as half-time reaction

Chain of Cytochrome c (Homo sapiens) (P99999 whole entry): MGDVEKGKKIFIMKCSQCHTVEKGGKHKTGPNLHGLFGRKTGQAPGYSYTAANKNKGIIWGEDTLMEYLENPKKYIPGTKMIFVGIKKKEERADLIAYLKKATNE

| Structure (SMILES) | inhibition [1] | inhibition [2] | logD at 1 h [3] | inhibition [4] | K [5] | K [6] | T1/2 [7] |
| --- | --- | --- | --- | --- | --- | --- | --- |
| O=C1C[C@@H](c2ccccc2)Oc2ccccc21 | 12% | 67% | 2.95 | 47% |  |  |  |
| O=c1c(-c2ccc(O)cc2)coc2cc(O)ccc12 | 5.8% |  |  | 43% |  |  |  |
| O=c1cc(-c2ccccc2)oc2ccccc12 | 0% | 87% |  | 50% |  |  |  |
| O=C1c2c(O)cc(O)cc2O[C@H](c2ccc(O)c(O)c2)[C@H]1O [(+)-TAXIFOLIN] | 36% | 58% | 0.67 | 67% | 1 M⁻¹ s⁻¹ | 0.067 min⁻¹ |  |
| O=c1cc(-c2ccccc2)oc2cc(O)c(O)c(O)c12 [BAICALEIN] | 79% | 91% | 2.51 | 71% |  |  |  |
| COc1ccc(-c2coc3cc(O)cc(O)c3c2=O)cc1 [BIOCHANIN] | 23% | 37% | 2.82 | 32% |  |  |  |
| Oc1cc(O)c2c(c1)O[C@H](c1ccc(O)c(O)c1)[C@@H](O)C2 [CIANIDANOL] | 61% |  | 0.01 | 90% | 2 M⁻¹ s⁻¹ | 0.13 min⁻¹ |  |
| O=C(O[C@@H]1Cc2c(O)cc(O)cc2O[C@@H]1c1cc(O)c(O)c(O)c1)c1cc(O)c(O)c(O)c1 [EPIGALOCATECHIN GALLATE] | 62% | 63% | 0.04 | 50% |  |  | 1.3 min |
| O=c1c(O)c(-c2ccc(O)c(O)c2)oc2cc(O)ccc12 [FISETIN] | 73% | 85% | 2.29 | 81% | 220 M⁻¹ s⁻¹ |  |  |
| O=c1c(-c2ccc(O)cc2)coc2cc(O)cc(O)c12 [GENISTEIN] | 0% | 50% | 2.68 | 51% |  |  |  |
| COc1ccc([C@@H]2CC(=O)c3c(O)cc(O)cc3O2)cc1O [HESPERETIN] | 7.8% | 71% | 2.22 | 57% | 0.1 M⁻¹ s⁻¹ |  |  |
| O=c1c(O)c(-c2ccc(O)cc2)oc2cc(O)cc(O)c12 [KAEMPFEROL] | 83% | 83% | 3.39 | 70% | 92 M⁻¹ s⁻¹ |  | 1.2 min |
| O=c1cc(-c2ccc(O)c(O)c2)oc2cc(O)cc(O)c12 [LUTEOLIN] | 32% | 84% | 2.7 | 71% |  | 0.033 min⁻¹ | 11 min |
| O=c1c(O)c(-c2cc(O)c(O)c(O)c2)oc2cc(O)cc(O)c12 [MYRICETIN] | 90% | 91% | 0.91 | 81% | 1030 M⁻¹ s⁻¹ |  | 0.08 min |
| O=C1C[C@@H](c2ccc(O)cc2)Oc2cc(O)cc(O)c21 [NARINGENIN] | 7.3% | 60% | 2.35 | 46% | 0.002 M⁻¹ s⁻¹ |  |  |
| C[C@@H]1O[C@@H](O[C@H]2[C@H](Oc3cc(O)c4c(c3)O[C@H](c3ccc(O)cc3)CC4=O)O[C@H](CO)[C@@H](O)[C@@H]2O)[C@H](O)[C@H](O)[C@H]1O [NARINGIN] | 27% | 81% | -0.87 | 54% |  |  |  |
| C[C@@H]1O[C@@H](OC[C@H]2O[C@@H](Oc3c(-c4ccc(O)c(O)c4)oc4cc(O)cc(O)c4c3=O)[C@H](O)[C@@H](O)[C@@H]2O)[C@H](O)[C@H](O)[C@H]1O [RUTIN] | 19% | 66% | -0.67 | 28% |  |  |  |
